SMILES strings stand for the structures. pIC50: −log10 of the molar value.

One experiment concerns the target VEGFR2, unphosphorylated (Homo sapiens (Human), UniProt P35968). In words: VEGFR ADP GLO Assay. Format: biochemical.
The target of experiment [1] is His6-TEV-PDGFRβ (557-1016) (Homo sapiens (Human), UniProt P09619). Description: PDGFRβ HTRF Assay. Format: biochemical. The note with it: read-out: PDGFR HTRF IC50. In a few lines:
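HTRF KinEASE-TK readout (665/620 nm ratio) of TK-biotin substrate phosphorylation by His-tagged PDGFRβ kinase domain. Enzyme and inhibitor preincubated 30 min, then ATP/substrate added for 3 h at room temperature before 60 min EDTA quench/detection.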
A general note: In TR-FRET formats the signal depends on donor and acceptor labels being close together.

Chain of VEGFR2, unphosphorylated (P35968 20-1356): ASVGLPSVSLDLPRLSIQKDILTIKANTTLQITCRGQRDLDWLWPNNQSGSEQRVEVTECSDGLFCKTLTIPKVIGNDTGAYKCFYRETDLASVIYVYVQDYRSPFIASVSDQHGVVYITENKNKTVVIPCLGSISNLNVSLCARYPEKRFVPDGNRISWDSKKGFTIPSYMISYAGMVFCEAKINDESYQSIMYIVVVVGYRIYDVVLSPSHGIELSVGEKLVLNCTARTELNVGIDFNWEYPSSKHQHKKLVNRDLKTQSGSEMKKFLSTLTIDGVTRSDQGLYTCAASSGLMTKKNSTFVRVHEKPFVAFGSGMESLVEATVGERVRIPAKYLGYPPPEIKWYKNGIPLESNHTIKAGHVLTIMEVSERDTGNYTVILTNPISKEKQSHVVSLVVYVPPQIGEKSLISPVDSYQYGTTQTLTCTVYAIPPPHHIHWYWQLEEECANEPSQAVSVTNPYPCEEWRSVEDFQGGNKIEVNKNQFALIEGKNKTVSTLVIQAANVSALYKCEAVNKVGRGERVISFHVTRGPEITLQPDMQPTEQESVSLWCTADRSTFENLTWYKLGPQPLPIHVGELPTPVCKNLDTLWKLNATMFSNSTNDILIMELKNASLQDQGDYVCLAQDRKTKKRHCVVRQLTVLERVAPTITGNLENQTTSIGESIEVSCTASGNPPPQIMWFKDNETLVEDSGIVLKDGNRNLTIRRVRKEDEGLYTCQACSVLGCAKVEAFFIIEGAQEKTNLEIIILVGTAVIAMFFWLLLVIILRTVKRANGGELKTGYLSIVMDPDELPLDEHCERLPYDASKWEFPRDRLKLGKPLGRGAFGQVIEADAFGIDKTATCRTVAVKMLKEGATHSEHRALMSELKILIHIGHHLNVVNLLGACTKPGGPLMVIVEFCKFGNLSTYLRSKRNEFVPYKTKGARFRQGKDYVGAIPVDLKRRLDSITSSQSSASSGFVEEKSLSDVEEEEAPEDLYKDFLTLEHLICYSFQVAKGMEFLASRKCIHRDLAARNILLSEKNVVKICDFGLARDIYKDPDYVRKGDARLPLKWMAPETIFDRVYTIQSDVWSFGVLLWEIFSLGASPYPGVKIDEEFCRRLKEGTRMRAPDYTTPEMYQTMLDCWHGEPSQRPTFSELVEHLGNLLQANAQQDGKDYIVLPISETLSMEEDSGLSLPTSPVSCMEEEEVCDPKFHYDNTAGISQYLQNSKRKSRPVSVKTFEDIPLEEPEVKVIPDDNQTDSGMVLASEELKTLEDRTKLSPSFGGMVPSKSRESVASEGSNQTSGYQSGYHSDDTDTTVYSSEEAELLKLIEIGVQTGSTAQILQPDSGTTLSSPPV
Chain of His6-TEV-PDGFRβ (557-1016) (P09619 557-1016): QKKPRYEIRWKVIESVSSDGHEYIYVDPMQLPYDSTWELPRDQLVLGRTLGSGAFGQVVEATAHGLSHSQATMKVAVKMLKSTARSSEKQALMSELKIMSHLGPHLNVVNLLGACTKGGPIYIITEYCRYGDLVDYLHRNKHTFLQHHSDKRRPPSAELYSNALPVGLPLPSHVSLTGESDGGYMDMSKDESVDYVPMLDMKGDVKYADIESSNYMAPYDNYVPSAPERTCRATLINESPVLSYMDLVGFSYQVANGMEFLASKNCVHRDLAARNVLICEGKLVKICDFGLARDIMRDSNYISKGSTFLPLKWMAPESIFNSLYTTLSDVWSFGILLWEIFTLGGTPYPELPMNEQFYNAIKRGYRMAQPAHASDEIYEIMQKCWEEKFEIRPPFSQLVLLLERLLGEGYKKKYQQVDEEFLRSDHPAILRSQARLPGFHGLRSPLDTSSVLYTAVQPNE

Usually pIC50 stands for −log10 of the IC50, conventionally taken in molar units. Turning to `Cc1ncc(C(=O)NCCN2CC(C)(C)C2)cc1NC(=O)c1cnn2cc(-c3cnn(C)c3)sc12` [Example 126, N-(5-((2-(3,3-dimethylazetidin-1-yl)ethyl)carbamoyl)-2-methylpyridin-3-yl)-2-(1-methyl-1H-pyrazol-4-yl)pyrazolo[5,1-b]thiazole-7-carboxamide], the pIC50 at VEGFR2, unphosphorylated was less than 5.12; in experiment [1], 9.52.
`COCCN(CCNC(=O)c1cnc(C)c(NC(=O)c2cnn3cc(-c4cnn(C)c4)sc23)c1)C(C)C` [Example 127, N-(5-((2-(isopropyl(2-methoxyethyl)amino)ethyl)carbamoyl)-2-methylpyridin-3-yl)-2-(1-methyl-1H-pyrazol-4-yl)pyrazolo[5,1-b]thiazole-7-carboxamide]: the pIC50 against VEGFR2, unphosphorylated is less than 5.12; in experiment [1] it was 9.22.
With `COCCN(CCNC(=O)c1cnc(C)c(NC(=O)c2cnn3cc(-c4cnn(C)c4)sc23)c1)CCOC` [Example 128, N-(5-((2-(bis(2-methoxyethyl)amino)ethyl)carbamoyl)-2-methylpyridin-3-yl)-2-(1-methyl-1H-pyrazol-4-yl)pyrazolo[5,1-b]thiazole-7-carboxamide], the negative-log IC50 (pIC50) against VEGFR2, unphosphorylated is less than 5.12; in experiment [1], 9.05.
On to `CC(=O)N1CCN(CCNC(=O)c2cnc(C)c(NC(=O)c3cnn4cc(-c5cnn(C)c5)sc34)c2)CC1` [Example 129, N-(5-((2-(4-acetylpiperazin-1-yl)ethyl)carbamoyl)-2-methylpyridin-3-yl)-2-(1-methyl-1H-pyrazol-4-yl)pyrazolo[5,1-b]thiazole-7-carboxamide], for which the pIC50 at VEGFR2, unphosphorylated is less than 5.12; in experiment [1], 8.54.
For `Cc1ncc(C(=O)NCCN2CCCC2(C)C)cc1NC(=O)c1cnn2cc(-c3cncnc3)sc12` [Example 139, N-(5-((2-(2,2-dimethylpyrrolidin-1-yl)ethyl)carbamoyl)-2-methylpyridin-3-yl)-2-(pyrimidin-5-yl)pyrazolo[5,1-b]thiazole-7-carboxamide], in that order: less than 5.12 and 8.28.
For `Cc1ncc(C(=O)NCCN2CCCC2(C)C)cc1NC(=O)c1cnn2cc(-c3cnn(CCO)c3)sc12` [Example 140, N-(5-((2-(2,2-dimethylpyrrolidin-1-yl)ethyl)carbamoyl)-2-methylpyridin-3-yl)-2-(1-(2-hydroxyethyl)-1H-pyrazol-4-yl)pyrazolo[5,1-b]thiazole-7-carboxamide], the pIC50 at VEGFR2, unphosphorylated was less than 5.12; in experiment [1], 9.30.
For `Cc1ncc(C(=O)NCCN2CCCC2(C)C)cc1NC(=O)c1cnn2cc(-c3ccc(=O)[nH]n3)sc12` [Example 141, N-(5-((2-(2,2-dimethylpyrrolidin-1-yl)ethyl)carbamoyl)-2-methylpyridin-3-yl)-2-(6-oxo-1,6-dihydropyridazin-3-yl)pyrazolo[5,1-b]thiazole-7-carboxamide], in that order: less than 5.12 and 8.74.
Turning to `COCCn1cc(-c2cn3ncc(C(=O)Nc4cc(C(=O)NCCN5CC6CCC5CC6)cnc4C)c3s2)cn1` [Example 142, N-(5-((2-(2-azabicyclo[2.2.2]octan-2-yl)ethyl)carbamoyl)-2-methylpyridin-3-yl)-2-(1-(2-methoxyethyl)-1H-pyrazol-4-yl)pyrazolo[5,1-b]thiazole-7-carboxamide], the pIC50 was less than 5.12 against VEGFR2, unphosphorylated and 9.30 in experiment [1].
For `Cc1ncc(C(=O)NCCN2CC3CCC2CC3)cc1NC(=O)c1cnn2cc(-c3cnn(CS(C)(=O)=O)c3)sc12` [Example 143, N-(5-((2-(2-azabicyclo[2.2.2]octan-2-yl)ethyl)carbamoyl)-2-methylpyridin-3-yl)-2-(1-((methylsulfonyl)methyl)-1H-pyrazol-4-yl)pyrazolo[5,1-b]thiazole-7-carboxamide], in that order: less than 5.12 and 9.22.
For the compound `Cc1ncc(C(=O)NCCN2CC3CCC2CC3)cc1NC(=O)c1cnn2cc(-c3cnn(C4COC4)c3)sc12` [Example 144, N-(5-((2-(2-azabicyclo[2.2.2]octan-2-yl)ethyl)carbamoyl)-2-methylpyridin-3-yl)-2-(1-(oxetan-3-yl)-1H-pyrazol-4-yl)pyrazolo[5,1-b]thiazole-7-carboxamide], the pIC50 against VEGFR2, unphosphorylated is less than 5.12; in experiment [1] it was 9.52.
For `Cc1ncc(C(=O)NCCN2CC3CCC2CC3)cc1NC(=O)c1cnn2cc(-c3ccc4oc(=O)[nH]c4c3)sc12` [Example 145, N-(5-((2-(2-azabicyclo[2.2.2]octan-2-yl)ethyl)carbamoyl)-2-methylpyridin-3-yl)-2-(2-oxo-2,3-dihydrobenzo[d]oxazol-5-yl)pyrazolo[5,1-b]thiazole-7-carboxamide], the negative logarithm of the IC50 (pIC50) on VEGFR2, unphosphorylated was less than 6.08; in experiment [1], 9.70.
On to `CC(=O)Nc1ccnc(-c2cn3ncc(C(=O)Nc4cc(C(=O)NCCN5CC6CCC5CC6)cnc4C)c3s2)c1` [Example 146, N-(5-((2-(2-azabicyclo[2.2.2]octan-2-yl)ethyl)carbamoyl)-2-methylpyridin-3-yl)-2-(4-acetamidopyridin-2-yl)pyrazolo[5,1-b]thiazole-7-carboxamide], for which the pIC50 against VEGFR2, unphosphorylated is less than 5.12; in experiment [1], 9.22.
As to `CC(=O)Nc1cncc(-c2cn3ncc(C(=O)Nc4cc(C(=O)NCCN5CC6CCC5CC6)cnc4C)c3s2)c1` [Example 147, N-(5-((2-(2-azabicyclo[2.2.2]octan-2-yl)ethyl)carbamoyl)-2-methylpyridin-3-yl)-2-(5-acetamidopyridin-3-yl)pyrazolo[5,1-b]thiazole-7-carboxamide], the pIC50 at VEGFR2, unphosphorylated is less than 5.12; in experiment [1], 9.10.
As to `Cc1ncc(C(=O)NCCN2CC3CCC2CC3)cc1NC(=O)c1cnn2cc(-c3ccncc3)sc12` [Example 148, N-(5-((2-(2-azabicyclo[2.2.2]octan-2-yl)ethyl)carbamoyl)-2-methylpyridin-3-yl)-2-(pyridin-4-yl)pyrazolo[5,1-b]thiazole-7-carboxamide], the pIC50 against VEGFR2, unphosphorylated is less than 5.12; in experiment [1], 9.52.
On the same counts, the results for `Cc1ncc(C(=O)NCCN2CC3CCC2CC3)cc1NC(=O)c1cnn2cc(-c3cccnc3)sc12` [Example 149, N-(5-((2-(2-azabicyclo[2.2.2]octan-2-yl)ethyl)carbamoyl)-2-methylpyridin-3-yl)-2-(pyridin-3-yl)pyrazolo[5,1-b]thiazole-7-carboxamide] are less than 5.12 and 9.52.
On the same counts, the results for `Cc1ncc(C(=O)NCCN2CC3CCC2CC3)cc1NC(=O)c1cnn2cc(-c3cnn(CC(N)=O)c3)sc12` [Example 150, N-(5-((2-(2-azabicyclo[2.2.2]octan-2-yl)ethyl)carbamoyl)-2-methylpyridin-3-yl)-2-(1-(2-amino-2-oxoethyl)-1H-pyrazol-4-yl)pyrazolo[5,1-b]thiazole-7-carboxamide] are less than 5.12 and 9.22.
For `Cc1ncc(C(=O)NCCN2CC3CCC2CC3)cc1NC(=O)c1cnn2cc(-c3cnn(CC#N)c3)sc12` [Example 151, N-(5-((2-(2-azabicyclo[2.2.2]octan-2-yl)ethyl)carbamoyl)-2-methylpyridin-3-yl)-2-(1-(cyanomethyl)-1H-pyrazol-4-yl)pyrazolo[5,1-b]thiazole-7-carboxamide], in that order: less than 5.12 and 9.52.
As to `Cc1ncc(C(=O)NCCN2CC(F)(F)C2)cc1NC(=O)c1cnn2cc(-c3ccncc3)sc12` [Example 152, N-(5-((2-(3,3-difluoroazetidin-1-yl)ethyl)carbamoyl)-2-methylpyridin-3-yl)-2-(pyridin-4-yl)pyrazolo[5,1-b]thiazole-7-carboxamide], the pIC50 at VEGFR2, unphosphorylated is less than 5.12; in experiment [1], 9.40.
On the same counts, the results for `Cc1ncc(C(=O)NCCN2CCC3(CC3)C2)cc1NC(=O)c1cnn2cc(-c3ccncc3)sc12` [Example 153, N-(5-((2-(5-azaspiro[2.4]heptan-5-yl)ethyl)carbamoyl)-2-methylpyridin-3-yl)-2-(pyridin-4-yl)pyrazolo[5,1-b]thiazole-7-carboxamide] are less than 5.12 and 9.40.
As to `Cc1ncc(C(=O)NCCN2CCC(F)(F)CC2)cc1NC(=O)c1cnn2cc(-c3ccncc3)sc12` [Example 154, N-(5-((2-(4,4-difluoropiperidin-1-yl)ethyl)carbamoyl)-2-methylpyridin-3-yl)-2-(pyridin-4-yl)pyrazolo[5,1-b]thiazole-7-carboxamide], the pIC50 at VEGFR2, unphosphorylated was less than 5.12; in experiment [1], 9.52.
On the same counts, the results for `Cc1ncc(C(=O)NCCN2CC(C)(C)C2)cc1NC(=O)c1cnn2cc(-c3ccncc3)sc12` [Example 155, N-(5-((2-(3,3-dimethylazetidin-1-yl)ethyl)carbamoyl)-2-methylpyridin-3-yl)-2-(pyridin-4-yl)pyrazolo[5,1-b]thiazole-7-carboxamide] are less than 5.12 and 9.00.
For `Cc1ncc(C(=O)NCCN2CCC(C)(C)C2)cc1NC(=O)c1cnn2cc(-c3ccncc3)sc12` [Example 156, N-(5-((2-(3,3-dimethylpyrrolidin-1-yl)ethyl)carbamoyl)-2-methylpyridin-3-yl)-2-(pyridin-4-yl)pyrazolo[5,1-b]thiazole-7-carboxamide], in that order: less than 5.12 and 9.40.
For `Cc1ncc(C(=O)NCCN2CCC(F)(F)CC2)cc1NC(=O)c1cnn2cc(-c3cccnc3)sc12` [Example 157, N-(5-((2-(4,4-difluoropiperidin-1-yl)ethyl)carbamoyl)-2-methylpyridin-3-yl)-2-(pyridin-3-yl)pyrazolo[5,1-b]thiazole-7-carboxamide], in that order: less than 5.12 and 9.22.
For the compound `Cc1ncc(C(=O)NCCN2CC(C)(C)C2)cc1NC(=O)c1cnn2cc(-c3cccnc3)sc12` [Example 158, N-(5-((2-(3,3-dimethylazetidin-1-yl)ethyl)carbamoyl)-2-methylpyridin-3-yl)-2-(pyridin-3-yl)pyrazolo[5,1-b]thiazole-7-carboxamide], the pIC50 is less than 5.12 at VEGFR2, unphosphorylated and 9.05 in experiment [1].

These data come from patent US20240109917A1 (ACTELION PHARMACEUTICALS LTD, priority 2020, published 2024).
